In DBAASP:
In brackets after ≈: the same amount, converted by molar mass.

Experiments:
Assay in all cases: ≥ marks a high value that may be exact or a test limit, other limits are often not marked, values filed in µg/mL are converted to µM
Bacillus anthracis = system: Bacillus anthracis
Bacillus cereus = system: Bacillus cereus
Escherichia coli = system: Escherichia coli
Staphylococcus aureus = system: Staphylococcus aureus
[1] = system: Bacillus subtilis ATCC 6633
[2] = system: Candida albicans ATCC 20032
[3] = system: Escherichia coli ATCC 25922
[4] = system: Staphylococcus aureus ATCC 25923
[5] = system: Bacillus subtilis CCT 2576
[6] = system: Pseudomonas aeruginosa ATCC 15442
[7] = system: Staphylococcus aureus ATCC 6538
[8] = system: Escherichia coli DH5alpha
Staphylococcus xylosus = system: Staphylococcus xylosus
[9] = system: Micrococcus luteus ATCC 9341
Escherichia coli JM109 = system: Escherichia coli JM109
[10] = system: Bacillus subtilis KCTC 1918
[11] = system: Candida albicans KCTC 7270
[12] = system: Escherichia coli KCTC 1682
[13] = system: Pseudomonas aeruginosa KCTC 1637
[14] = system: Saccharomyces cerevisiae KCTC 7296
[15] = system: Salmonella typhimurium KCTC 1926
[16] = system: Staphylococcus aureus KCTC 1621
[17] = system: Staphylococcus epidermidis KCTC 1917
[18] = system: Trichosporon beigelii KCTC 7707
Bacillus subtilis = system: Bacillus subtilis
Candida albicans = system: Candida albicans
Cryptococcus neoformans = system: Cryptococcus neoformans
Pseudomonas putida = system: Pseudomonas putida
Saccharomyces cerevisiae = system: Saccharomyces cerevisiae
Salmonella typhimurium = system: Salmonella typhimurium
Serratia marcescens = system: Serratia marcescens
Streptococcus mutans = system: Streptococcus mutans
Streptococcus pneumoniae = system: Streptococcus pneumoniae

CC(C)C[C@H](NC(=O)[C@@H](NC(=O)[C@@H]1CCCN1C(=O)[C@H](CC(C)C)NC(=O)[C@@H](N)Cc1ccccc1)C(C)C)C(=O)N[C@H](C(=O)N[C@@H](CCCCN)C(=O)N[C@H](C(=O)N[C@@H](Cc1ccccc1)C(=O)N[C@@H](CCCN=C(N)N)C(=O)N[C@@H](Cc1ccc(O)cc1)C(=O)N[C@@H](CO)C(=O)N[C@@H](CCCCN)C(=O)N[C@@H](CCCCN)C(=O)N[C@H](C(=O)N[C@@H](C)C(=O)N[C@@H](C)C(=O)NCC(=O)N[C@@H](CS)C(=O)N[C@@H](Cc1ccccc1)C(=O)O)[C@@H](C)O)C(C)C)C(C)C [FLPVLVKVFRYSKKTAAGCF]
MIC (Bacillus anthracis): ≥ 113 µM
MIC (Bacillus cereus): 28.1 µM (≈ 64 µg/mL)
MIC (Escherichia coli): > 56.3 µM
MIC (Staphylococcus aureus): > 113 µM

CC[C@H](C)[C@H](N)C(=O)N[C@@H](CC(C)C)C(=O)NCC(=O)N1CCC[C@H]1C(=O)N[C@H](C(=O)N[C@H](C(=O)N[C@@H](CCCCN)C(=O)N[C@H](C(=O)N[C@H](C(=O)NCC(=O)NCC(=O)N[C@H](C(=O)N[C@H](C(=O)NCC(=O)NCC(=O)N[C@@H](CC(C)C)C(=O)N[C@@H](CC(C)C)C(=O)N[C@@H](CCCCN)C(=O)N[C@@H](CC(N)=O)C(=O)N[C@@H](CC(C)C)C(N)=O)[C@@H](C)CC)C(C)C)[C@@H](C)CC)[C@@H](C)O)[C@@H](C)CC)C(C)C [ILGPVIKTIGGVIGGLLKNL]
MIC [1]: 9.52 µM (≈ 18.8 µg/mL)
MIC [2]: 9.52 µM (≈ 18.8 µg/mL)
MIC [3]: > 50.6 µM
MIC [4]: 4.76 µM (≈ 9.4 µg/mL)

CC[C@H](C)[C@H](N)C(=O)N[C@@H](CC(C)C)C(=O)NCC(=O)N1CCC[C@H]1C(=O)N[C@H](C(=O)N[C@@H](CC(C)C)C(=O)NCC(=O)N[C@@H](CC(C)C)C(=O)N[C@H](C(=O)N[C@@H](CO)C(=O)N[C@@H](CC(N)=O)C(=O)N[C@H](C(=O)N[C@@H](CC(C)C)C(=O)N[C@@H](CC(=O)O)C(=O)N[C@@H](CC(=O)O)C(=O)N[C@H](C(=O)N[C@@H](CC(C)C)C(=O)NCC(=O)N[C@H](C(=O)N[C@@H](CC(C)C)C(N)=O)[C@@H](C)CC)C(C)C)[C@@H](C)O)C(C)C)C(C)C [ILGPVLGLVSNTLDDVLGIL]
MIC [1]: ≥ 49.5 µM
MIC [2]: ≥ 49.5 µM
MIC [3]: > 49.5 µM
MIC [4]: > 49.5 µM

CC[C@H](C)[C@H](N)C(=O)N[C@@H](CC(C)C)C(=O)NCC(=O)N[C@H](C(=O)N[C@H](C(=O)N[C@@H](CC(C)C)C(=O)NCC(=O)N[C@@H](CC(C)C)C(=O)N[C@@H](CC(C)C)C(=O)N[C@@H](CCCCN)C(=O)NCC(=O)N[C@@H](CC(C)C)C(N)=O)[C@@H](C)CC)[C@@H](C)O [ILGTILGLLKGL]
MIC [5]: 1.24 µM (≈ 1.5 µg/mL)
MIC [3]: 10.3 µM (≈ 12.5 µg/mL)
MIC [6]: 1.4 µM (≈ 1.7 µg/mL)
MIC [7]: 10.3 µM (≈ 12.5 µg/mL)

CC[C@H](C)[C@H](N)C(=O)N[C@@H](CC(C)C)C(=O)N[C@H](C(=O)N[C@@H](CCCCN)C(=O)N[C@@H](CCCN=C(N)N)C(=O)N[C@@H](CCCCN)C(=O)O)[C@@H](C)CC [ILIKRK]
MIC [8]: ≥ 64 µM
MIC (Staphylococcus xylosus): ≥ 64 µM

CC[C@H](C)[C@H](N)C(=O)N[C@@H](CC(C)C)C(=O)N1CCC[C@H]1C(=O)N[C@H](C(=O)N[C@@H](CCCCN)C(=O)N[C@H](C(=O)N1CCC[C@H]1C(=O)N[C@H](C(=O)N[C@H](C(=O)N1CCC[C@H]1C(=O)N[C@H](C(=O)N[C@@H](CCCN=C(N)N)C(=O)N[C@@H](CCCN=C(N)N)C(N)=O)[C@@H](C)CC)[C@@H](C)CC)[C@@H](C)CC)[C@@H](C)CC)[C@@H](C)CC [ILPIKIPIIPIRR]
MIC [9]: 25 µM (≈ 38.5 µg/mL)

CC[C@H](C)[C@H](N)C(=O)N[C@@H](CC(N)=O)C(=O)N[C@@H](Cc1c[nH]c2ccccc12)C(=O)N[C@@H](CCCCN)C(=O)N[C@@H](CCCCN)C(=O)N[C@H](C(=O)N[C@@H](C)C(=O)N[C@@H](CCC(=O)O)C(=O)N[C@H](C(=O)NCC(=O)NCC(=O)N[C@@H](CCCCN)C(=O)N[C@H](C(=O)N[C@@H](CC(C)C)C(=O)N[C@@H](CO)C(=O)N[C@@H](CO)C(=O)N[C@@H](CC(C)C)C(N)=O)[C@@H](C)CC)C(C)C)[C@@H](C)CC [INWKKIAEVGGKILSSL]
MIC [1]: 1.08 µM (≈ 2 µg/mL)
MIC (Escherichia coli JM109): 4.31 µM (≈ 8 µg/mL)

CC[C@H](C)[C@H](NC(=O)[C@H](CCCCN)NC(=O)[C@H](CO)NC(=O)[C@H](Cc1ccccc1)NC(=O)[C@H](CC(C)C)NC(=O)[C@H](CCCCN)NC(=O)[C@H](CCC(=O)O)NC(=O)[C@H](CC(C)C)NC(=O)[C@H](CCCN=C(N)N)NC(=O)[C@H](CCCCN)NC(=O)[C@H](Cc1ccccc1)NC(=O)[C@@H](NC(=O)[C@@H](N)CCCCN)C(C)C)C(N)=O [KVFKRLEKLFSKI]
MIC [10]: 2.21 µM (≈ 3.61 µg/mL)
MIC [11]: 25 µM (≈ 40.9 µg/mL)
MIC [12]: 3.12 µM (≈ 5.11 µg/mL)
MIC [13]: 1.56 µM (≈ 2.55 µg/mL)
MIC [14]: 8.84 µM (≈ 14.5 µg/mL)
MIC [15]: 0.78 µM (≈ 1.28 µg/mL)
MIC [16]: 6.25 µM (≈ 10.2 µg/mL)
MIC [17]: 6.25 µM (≈ 10.2 µg/mL)
MIC [18]: 1.56 µM (≈ 2.55 µg/mL)

CC(C)C[C@H](NC(=O)[C@H](CC(C)C)NC(=O)[C@H](CCCN=C(N)N)NC(=O)[C@H](CCCN=C(N)N)NC(=O)[C@H](CC(C)C)NC(=O)[C@H](CC(C)C)NC(=O)[C@H](CCCN=C(N)N)NC(=O)[C@H](CCCN=C(N)N)NC(=O)[C@H](CC(C)C)NC(=O)[C@H](CC(C)C)NC(=O)[C@H](CCCN=C(N)N)NC(=O)[C@H](CCCN=C(N)N)NC(=O)[C@H](CC(C)C)NC(=O)[C@H](CC(C)C)NC(=O)[C@H](CCCN=C(N)N)NC(=O)[C@H](CCCN=C(N)N)NC(=O)[C@H](CC(C)C)NC(=O)[C@H](CC(C)C)NC(=O)[C@@H](N)CCCN=C(N)N)C(=O)N[C@@H](CCCN=C(N)N)C(=O)O [RLLRRLLRRLLRRLLRRLLR]
MIC (Bacillus subtilis): 0.738 µM (≈ 2 µg/mL)
MIC (Candida albicans): 2.95 µM (≈ 8 µg/mL)
MIC (Cryptococcus neoformans): 2.95 µM (≈ 8 µg/mL)
MIC (Escherichia coli): 0.738 µM (≈ 2 µg/mL)
MIC (Pseudomonas putida): 0.738 µM (≈ 2 µg/mL)
MIC (Saccharomyces cerevisiae): 2.95 µM (≈ 8 µg/mL)
MIC (Salmonella typhimurium): 0.369 µM (≈ 1 µg/mL)
MIC (Serratia marcescens): 0.738 µM (≈ 2 µg/mL)
MIC (Staphylococcus aureus): 0.369 µM (≈ 1 µg/mL)
MIC (Streptococcus mutans): 0.738 µM (≈ 2 µg/mL)
MIC (Streptococcus pneumoniae): 0.738 µM (≈ 2 µg/mL)

CC(C)C[C@H](NC(=O)[C@H](CC(C)C)NC(=O)[C@H](CO)NC(=O)[C@H](CCCCN)NC(=O)[C@H](CC(C)C)NC(=O)[C@@H]1CCCN1C(=O)[C@H](C)NC(=O)[C@H](Cc1ccccc1)NC(=O)[C@@H]1CCCN1C(=O)[C@H](CC(C)C)NC(=O)[C@@H](NC(=O)[C@H](CCCCN)NC(=O)[C@H](CCCCN)NC(=O)[C@@H](NC(=O)[C@H](CO)NC(=O)[C@@H](N)C(C)C)C(C)C)C(C)C)C(=O)N[C@@H](CO)C(=O)N[C@@H](Cc1ccccc1)C(=O)N[C@@H](C)C(=O)N[C@@H](Cc1ccccc1)C(=O)O [VSVKKVLPFAPLKSLLSFAF]
MIC (Bacillus anthracis): ≥ 117 µM
MIC (Bacillus cereus): ≥ 117 µM
MIC (Escherichia coli): 117 µM (≈ 256 µg/mL)
MIC (Staphylococcus aureus): > 117 µM
